Measurements as given in ChEMBL document CHEMBL1201862, “PubChem BioAssay data set” (2004).
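Results reflect a 48-hour exposure of cells in 96-well plates to compound at five concentrations. Abbreviation: GI50, concentration required for 50% inhibition of growth.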 Calls of active or inactive are those of the source. Cut-off read from the data, not from the text of the source: active = GI50 up to about 1.1 µM and inactive = higher.

Columns and labels:
Test in all cases: NCI anticancer screen, dose series, 48 h
A498 = system: A498
CAKI-1 = system: CAKI-1
CCRF-CEM = system: CCRF-CEM
COLO 205 = system: COLO 205
EKVX = system: EKVX
HCC 2998 = system: HCC 2998
HCT-116 = system: HCT-116
HT-29 = system: HT-29
K562 = system: K562
M14 = system: M14
MCF7 = system: MCF7
Malme-3M = system: Malme-3M
NCI-H522 = system: NCI-H522
OVCAR-4 = system: OVCAR-4
SK-MEL-28 = system: SK-MEL-28
SK-OV-3 = system: SK-OV-3
SN12C = system: SN12C
SNB-75 = system: SNB-75
SW-620 = system: SW-620
BT-549 = system: BT-549

Measured: GI50

CC(=O)c1ccc2c(c1)CC1(C2)Cc2cc3c(cc2C1)C(=O)CC3 (stereo unspecified)
active: A498 0.401 µM | CCRF-CEM 0.65 µM | COLO 205 0.344 µM | HCC 2998 0.91 µM | HT-29 1.07 µM | K562 0.521 µM | MCF7 0.429 µM | SK-OV-3 0.723 µM | SW-620 0.681 µM
inactive: CAKI-1 2.03 µM | EKVX 6 µM | HCT-116 2.1 µM | M14 2 µM | Malme-3M 1.35 µM | NCI-H522 1.93 µM | OVCAR-4 2.55 µM | SK-MEL-28 3.55 µM | SN12C 4.25 µM | SNB-75 32 µM

CCCNC(=S)N/N=C1\C(=O)Nc2ccccc21
inactive: A498 > 100 µM | CAKI-1 > 100 µM | CCRF-CEM > 100 µM | COLO 205 > 100 µM | EKVX > 100 µM | HCC 2998 > 100 µM | HCT-116 > 100 µM | HT-29 > 100 µM | K562 > 100 µM | M14 > 100 µM | MCF7 > 100 µM | Malme-3M > 100 µM | NCI-H522 > 100 µM | OVCAR-4 > 100 µM | SK-MEL-28 > 100 µM | SK-OV-3 > 100 µM | SN12C > 100 µM | SNB-75 > 100 µM | SW-620 > 100 µM

CNC(=S)N/N=C/c1ccc([N+](=O)[O-])s1
inactive: A498 > 10 µM | BT-549 > 10 µM | CAKI-1 > 10 µM | CCRF-CEM > 10 µM | COLO 205 1.81 µM | EKVX > 10 µM | HCC 2998 8.15 µM | HCT-116 5.48 µM | HT-29 3.13 µM | K562 > 10 µM | M14 > 10 µM | Malme-3M 7.53 µM | NCI-H522 > 10 µM | OVCAR-4 > 10 µM | SK-MEL-28 > 10 µM | SK-OV-3 > 10 µM | SN12C > 10 µM | SNB-75 > 10 µM | SW-620 > 10 µM

O=C1CCCCCCCCCCC1CN1CCOCC1 (stereo unspecified)
inactive: BT-549 > 100 µM | CCRF-CEM > 100 µM | COLO 205 > 100 µM | EKVX > 100 µM | HCC 2998 > 100 µM | HCT-116 > 100 µM | K562 > 100 µM | M14 > 100 µM | MCF7 > 100 µM | Malme-3M > 100 µM | NCI-H522 > 100 µM | OVCAR-4 > 100 µM | SK-MEL-28 > 100 µM | SK-OV-3 > 100 µM | SN12C > 100 µM | SNB-75 2.45 µM | SW-620 > 100 µM

COc1cc(OC)c(NC2=NCCO2)cc1Cl
inactive: A498 32.7 µM | CCRF-CEM 54 µM | COLO 205 18.8 µM | EKVX 61.9 µM | HCC 2998 23.8 µM | HCT-116 34.4 µM | HT-29 23.5 µM | K562 83.9 µM | M14 31.3 µM | MCF7 49.1 µM | Malme-3M 68.7 µM | NCI-H522 32.8 µM | OVCAR-4 > 100 µM | SK-MEL-28 44 µM | SN12C 44.4 µM | SNB-75 35.6 µM | SW-620 > 100 µM

Nc1nnc2n1C(=O)C(C1(C3=Nc4nnc(N)n4C3=O)Cc3ccccc3C1=O)=N2
inactive: CAKI-1 > 100 µM | CCRF-CEM 48 µM | COLO 205 > 100 µM | EKVX > 100 µM | HCC 2998 > 100 µM | HCT-116 > 100 µM | HT-29 > 100 µM | K562 94 µM | M14 > 100 µM | MCF7 40.7 µM | Malme-3M > 100 µM | SK-MEL-28 > 100 µM | SK-OV-3 > 100 µM | SN12C > 100 µM | SNB-75 > 100 µM | SW-620 > 100 µM
active: A498 0.0205 µM

Cn1c2c(c3ccccc31)CCN1C(=O)CN(C(=O)C3CCCCC3)CC21 (stereo unspecified)
inactive: CCRF-CEM > 100 µM | COLO 205 > 100 µM | EKVX > 100 µM | HCC 2998 > 100 µM | HCT-116 > 100 µM | HT-29 > 100 µM | K562 > 100 µM | M14 > 100 µM | MCF7 > 100 µM | Malme-3M > 100 µM | NCI-H522 > 100 µM | OVCAR-4 > 100 µM | SK-MEL-28 > 100 µM | SK-OV-3 > 100 µM | SN12C > 100 µM | SNB-75 > 100 µM | SW-620 > 100 µM

Cc1ccc(S(=O)(=O)NC(=O)NC(CC(=O)O)C(=O)O)cc1 (stereo unspecified)
inactive: BT-549 > 100 µM | CCRF-CEM > 100 µM | COLO 205 > 100 µM | HCT-116 > 100 µM | HT-29 > 100 µM | K562 > 100 µM | M14 > 100 µM | MCF7 > 100 µM | Malme-3M > 100 µM | NCI-H522 > 100 µM | OVCAR-4 > 100 µM | SK-MEL-28 > 100 µM | SK-OV-3 > 100 µM | SN12C > 100 µM | SNB-75 > 100 µM | SW-620 > 100 µM
